Reference: patent publication US8283368B2, “Selective ligands for the dopamine 3 (D3) receptor and methods of using the same” (The Regents of the University of Michigan, priority 2008, dated 2012)
Entries after “also recorded” stand apart in the source; their conditions may differ. Where two headings read alike, the source gives them in different places.

Legend:
Aqueous solubility = type: physicochemical
D2 receptor [1] = target: T1, D2 receptor (Rattus norvegicus, UniProt P61169); experiment: [3H]Spiperone binding assay for D2-like receptors, rat caudate-putamen membranes; design: from tissue; host or cells: rat caudate-putamen membranes; settings: for Ki: rat brain
T1 sequence (P61169 whole entry): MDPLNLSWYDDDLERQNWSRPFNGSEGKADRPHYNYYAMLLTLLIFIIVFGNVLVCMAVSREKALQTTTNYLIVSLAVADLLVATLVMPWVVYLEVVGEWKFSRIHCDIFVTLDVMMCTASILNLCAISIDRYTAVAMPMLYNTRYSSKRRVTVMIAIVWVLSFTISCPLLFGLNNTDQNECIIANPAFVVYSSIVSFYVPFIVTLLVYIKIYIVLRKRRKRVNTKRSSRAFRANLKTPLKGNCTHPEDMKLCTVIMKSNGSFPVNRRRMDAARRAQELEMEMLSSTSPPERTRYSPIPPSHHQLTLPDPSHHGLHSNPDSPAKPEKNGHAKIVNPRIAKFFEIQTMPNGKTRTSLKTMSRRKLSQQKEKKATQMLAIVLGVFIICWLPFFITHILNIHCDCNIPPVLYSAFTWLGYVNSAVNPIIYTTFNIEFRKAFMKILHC
Protocol: (§1) All other Ki values are based on a single-site model.
(§2) Determination of D3 dopamine receptor affinity and selectivity were performed in membranes prepared from the brains of adult, male Sprague-Dawley rats (Harlan Sprague-Dawley, Indianapolis, Ind.). All compounds were dissolved in 100% ethanol at a concentration of 5 mM.
[^3H]Spiperone binding assays. […] Assays were performed using membranes prepared from rat caudate-putamen, which predominantly express the D2 subtype of D2-like receptors, and the final membrane homogenate concentration was 1.5 mg o.w.w./ml. The assay buffer was 50 mM Tris-HCl, 5 mM KCl, 2 mM MgCl2, and 2 mM CaCl2, pH 7.4 at 23° C.; the concentration of [^3H]spiperone (24 Ci/mmol; Amersham) was 0.2 nM; and the incubation time was 90 minutes at 23° C. Nonspecific binding was defined in the presence of 1 μM (+)-butaclamol.

D2 receptor [2] = target: T1, D2 receptor; experiment: In vivo hypothermia assay in rats (D2 agonist activity); design: compounds 5, 6, and 12 in yawning and hypothermia assays in rats; from tissue; host or cells: living rats (Harlan), core body temperature read-out; settings: for in vivo functional activity at the D2 receptor: concluded from hypothermia in rats; for induction of hypothermia / changes in body temperature: rats, s.c.
Protocol: Recently, in vivo functional assays for the D3 and D2 receptors have been validated. (24,25). […] By employing these validated assays, compounds 5, 6, and 12 were evaluated for their in vivo functional activity at the D3 and D2 receptors.
(§3) Rats were purchased from Harlan (Indianapolis, Ind.) and housed three to a cage for yawning studies, and one to a cage for hypothermia studies. […] Yawning studies were performed as previously described (24,25), with yawning defined as a prolonged (about 1 second), wide opening of the mouth followed by a rapid closure. […] Yawning was recorded for 30 minutes after each injection. […] Yawns and changes in core body temperature are presented as the mean±standard error of the mean (SEM) with 8 (yawning) or 6 (hypothermia) rats per group.

D3 receptor = target: T2, D3 receptor (Rattus norvegicus, UniProt P19020); experiment: [3H]PD 128907 binding assay for D3 receptors, rat ventral striatum membranes; settings: for Selectivity D1-like/D3 / Selectivity D2-like/D3: ratio of Ki values, Table 1; for less potent than compound 6 to the D3 receptor: Ki compared with compound 6
T2 construct: membranes prepared from the brains of adult, male Sprague-Dawley rats; from tissue; host or cells: rat ventral striatum (nucleus accumbens and olfactory tubercles) membranes
T2 sequence (P19020 whole entry): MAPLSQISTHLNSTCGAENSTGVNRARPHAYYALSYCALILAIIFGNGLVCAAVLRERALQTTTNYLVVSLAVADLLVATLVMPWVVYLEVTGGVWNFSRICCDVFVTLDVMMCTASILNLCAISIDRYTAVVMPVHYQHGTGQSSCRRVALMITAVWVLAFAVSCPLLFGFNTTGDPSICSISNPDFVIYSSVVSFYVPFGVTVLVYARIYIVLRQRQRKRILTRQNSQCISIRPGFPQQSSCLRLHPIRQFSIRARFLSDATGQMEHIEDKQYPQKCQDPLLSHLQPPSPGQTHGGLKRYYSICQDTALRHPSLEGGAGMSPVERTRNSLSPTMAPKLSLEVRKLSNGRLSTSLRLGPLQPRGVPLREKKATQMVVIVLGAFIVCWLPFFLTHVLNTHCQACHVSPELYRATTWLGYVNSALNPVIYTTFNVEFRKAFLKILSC
Protocol: as §1, §2
Rat ventral striatum (nucleus accumbens and olfactory tubercles) was prepared in assay buffer (50 mM Tris, 1 mM EDTA; pH 7.4 at 23° C.) to yield a final concentration of 10 mg original wet weight (o.w.w.)/ml. […] Nonspecific binding was defined by 1 μM spiperone. Assay tubes were incubated at 23° C. for 3 hours. The reaction was terminated by rapid vacuum filtration.

[3] = target: D1-like dopamine receptors; experiment: [3H]SCH 23390 binding assay for D1-like dopamine receptors, rat brain membranes; settings: single-site model, read-out: Ki ± SEM D1-like [3H]SCH23390
Protocol: as §1, §2

D2 receptor [4] = target: T1, D2 receptor; experiment: Alteration of pramipexole induced hypothermia in rats; type: in vivo; design: compounds 5, 6, and 12 in yawning and hypothermia assays in rats; from tissue; host or cells: living rats (Harlan), core body temperature read-out; settings: rats pretreated with 10.0 or 32.0 mg/kg
Protocol: as §3

[5] = background statement on known compounds; cited from earlier work
[6] = 2-site fit, high affinity component, read-out: Ki ± SEM D2 [3H]Spiperone, high affinity component (h)
[7] = 2-site fit, low affinity component, read-out: Ki ± SEM D2 [3H]Spiperone, low affinity component (1)
[8] = rat brain, single-site model, mean±SEM of three to five determinations, read-out: Ki ± SEM D3 [3H]PD128907
[9] = single-site model, read-out: Ki ± SEM D2 [3H]Spiperone

aqueous solubility (Aqueous solubility)	Ki (D3 receptor; [8]) [nM]	Ki [3] [nM]	Ki (D2 receptor [1]; [9]) [nM]	Selectivity D1-like/D3 (D3 receptor)	Selectivity D2-like/D3 (D3 receptor)	Compound	in vivo functional activity at the D2 receptor (D2 receptor [2])	induction of hypothermia / changes in body temperature (D2 receptor [2])	further results
–	–	–	68 ± 4.6	–	–	CCCN(CC[C@H]1CC[C@H](NC(=O)c2cc3ccccc3o2)CC1)[C@H]1CCc2nc(N)sc2C1 [Compound 11, Trans-N-(4-(2-(((S)-2-amino-4,5,6,7-tetrahydrobenzo[d]thiazol-6-yl)(propyl)amino)ethyl)cyclohexyl)benzofuran-2-carboxamide]	–	–	–
–	0.74 ± 0.083	5400	–	>7,000	74	CCCCN(CC[C@H]1CC[C@H](NC(=O)c2ccc3ccccc3c2)CC1)[C@H]1CCc2nc(N)sc2C1 [Compound 7, Trans-N-(4-(2-(((S)-2-amino-4,5,6,7-tetrahydrobenzo[d]thiazol-6-yl)(butyl)amino)ethyl)cyclohexyl)-2-naphthamide]	–	–	Ki (D2 receptor [1]; [6]): 55 ± 12 nM; Ki (D2 receptor [1]; [7]): 1300 ± 180 nM; less selectivity for the D3 receptor over the D2 receptor than compound 6 (D3 receptor; D2 high affinity binding component): ~10 fold
good aqueous solubility	–	–	330 ± 69	–	–	CCCN(CC[C@H]1CC[C@H](NC(=O)C=Cc2ccccc2)CC1)[C@H]1CCc2nc(N)sc2C1 [Compound 12, Trans-N-(4-(2-(((S)-2-amino-4,5,6,7-tetrahydrobenzo[d]thiazol-6-yl)(propyl)amino)ethyl)cyclohexyl)cinnamamide]	no detectable agonist activity at the D2 receptor; also recorded: no detectable agonist or antagonist activity at the D2 receptor	failed to induce changes in body temperature	effect on induction of hypothermia by pramipexole (D2 receptor [4]): failed to alter the induction of hypothermia by pramipexole

The remaining lines, values behind:

Compound	aqueous solubility (Aqueous solubility)	Ki (D3 receptor; [8]) [nM]	Ki [3] [nM]	Ki (D2 receptor [1]; [9]) [nM]	Selectivity D1-like/D3 (D3 receptor)	Selectivity D2-like/D3 (D3 receptor)	in vivo functional activity at the D2 receptor (D2 receptor [2])	induction of hypothermia / changes in body temperature (D2 receptor [2])	further results
CCCN(CCCCNC(=O)c1ccc2ccccc2c1)[C@H]1CCc2nc(N)sc2C1 [Compound 5, (S)—N-(4-((2-amino-4,5,6,7-tetrahydrobenzo[d]thiazol-6-yl)(propyl)amino)butyl)-2-naphthamide]	good aqueous solubility	0.043 ± 0.006	–	–	–	–	full agonist at the D3 and D2 receptors in vivo	hypothermia was induced by compound 5 at higher doses	Ki (D2 receptor [1]; [6]): 2.7 ± 0.4 nM; Ki (D2 receptor [1]; [7]): 6700 ± 1500 nM
CCCN[C@H]1CCc2nc(N)sc2C1 [Compound 1, pramipexole, reference compound]	–	–	> 100000	–	–	–	D2 agonist at higher doses	induction of hypothermia occurring at higher doses	–
COc1ccc2c(c1)CCC1CN(CCC3CCC(NC(=O)c4ccc5ccccc5c4)CC3)CCN21 (centres unmarked) [Compound 4, reference compound]	–	–	> 50000	> 10000	>5000	>1000	–	–	aqueous solubility, known compounds [5]: poor aqueous solubility; Ki (D3 receptor): 5.7 ± 0.4 nM
Nc1nc2c(s1)C[C@@H](N(CCC1CCCCC1)CC[C@H]1CC[C@H](NC(=O)c3ccc4ccccc4c3)CC1)CC2 [Compound 9, Trans-N-(-4-(2-(((S)-2-amino-4,5,6,7-tetrahydrobenzo[d]thiazol-6-yl)(2-cyclohexylethyl)amino)ethyl)cyclohexyl)-2-naphthamide]	–	23 ± 2.7	–	1200	–	–	–	–	less potent than compound 6 to the D2 receptor (D2 receptor [1]; Ki compared with compound 6): 3 times
CCCN(CC[C@H]1CC[C@H](NC(=O)c2ccc3ccccc3c2)CC1)[C@H]1CCc2nc(N)sc2C1 [Compound 6, Trans-N-(4-(2-(((S)-2-amino-4,5,6,7-tetrahydrobenzo[d]thiazol-6-yl)(propyl)amino)ethyl)cyclohexyl)-2-naphthamide]	good aqueous solubility	–	–	–	–	–	no detectable agonist activity at the D2 receptor	failed to induce changes in body temperature	aqueous solubility (Aqueous solubility; dihydrochloride salt form): greater than 100 mg/ml
Nc1nc2c(s1)C[C@@H](NCC[C@H]1CC[C@H](NC(=O)c3ccc4ccccc4c3)CC1)CC2 [Compound 10, Trans-N-(4-(2-((S)-2-amino-4,5,6,7-tetrahydrobenzo[d]thiazol-6-ylamino)ethyl)cyclohexyl)-2-naphthamide]	–	7.6	64000	670 ± 140	>8,000	88	–	–	less potent than compound 6 to the D3 receptor (D3 receptor): 19 times
CC(C)CCN(CC[C@H]1CC[C@H](NC(=O)c2ccc3ccccc3c2)CC1)[C@H]1CCc2nc(N)sc2C1 [Compound 8, Trans-N-(4-(2-(((S)-2-amino-4,5,6,7-tetrahydrobenzo[d]thiazol-6-yl)(isopentyl)amino)ethyl)cyclohexyl)-2-naphthamide]	–	2.2 ± 0.1	13000	345 ± 33	>5,000	157	–	–	less potent than compound 6 to the D3 receptor (D3 receptor): 5 times
